Molecular target: T1, PTK2 (Homo sapiens, UniProt Q05397)
T1 construct: purchased Invitrogen PV3832
Test: PTK2 enzyme test Assay 2 (DELFIA, poly-Glu-Tyr substrate, PT66 antibody)
Format: biochemical
Conditions: Assay 2 (values marked *); 1 h pre-incubation, 50 μM ATP mix, final DMSO 0.5%
Source text: (§1) This test uses active PTK2 enzyme (Invitrogen Code PV3832) and poly-Glu-Tyr (4:1, Sigma P-0275) as the kinase substrate. The kinase activity is detected by means of the phosphorylation of the substrate in a DELFIA™ assay. The phosphorylated substrate is detected with the europium-labelled phosphotyrosine antibody PT66 (Perkin Elmer, No.: AD0040).
In order to determine concentration-activity curves with PTK2-inhibitors the compounds are serially diluted first of all in 100% DMSO and then in kinase dilution buffer (20 mM TRIS/HCl pH 7.5, 0.1 mM EDTA, 0.1 mM EGTA, 0.286 mM sodium orthovanadate, 10% glycerol with the addition of freshly prepared BSA (fraction V, 1 mg/mL) and DTT (1 mM)) and 10 μL of each dilution are dispensed per well in a 96-well microtitre plate (clear U-shaped base plate, Greiner No. 650101) (the inhibitors are tested in duplicates) and mixed with 10 μL/well of PTK2 kinase (0.01 μg/well). PTK2 kinase is diluted accordingly beforehand with kinase dilution buffer. The diluted PTK2 inhibitor and the PTK2 kinase are pre-incubated for 1 h at RT and shaken at 500 revolutions per min. Then 10 μL/well poly-Glu-Tyr substrate (25 μg/well poly-Glu-Tyr, 0.05 μg/well biotinylated poly-Glu-Tyr dissolved in 250 mM TRIS/HCl pH 7.5, 9 mM DTT) are added. The reaction is started by the addition of 20 μL of ATP Mix (30 mM TRIS/HCl pH 7.5, 0.02% Brij, 0.2 mM sodium orthovanadate, 10 mM magnesium acetate, 0.1 mM EGTA, 1× phosphatase inhibitor cocktail 1 (Sigma, No.: P2850), 50 μM ATP (Sigma, No.: A3377; 15 mM stock solution))—the final concentration of DMSO is 0.5%. After 1 h kinase reaction (the plates are shaken at 500 rpm), the reaction is stopped by the addition of 12 μL/well of 100 mM EDTA, pH 8, and shaken for a further 5 min at RT (500 U/min). 55 μL of the reaction mixture are transferred into a streptavidin plate (Strepta Well High Bind (transparent, 96-well) made by Roche, No.: 11989685001) and incubated for 1 h at RT (shaking at 500 rpm). Then the microtitre plate is washed five times with 200 μL/well D-PBS (Invitrogen, No. 14190). 100 μL of a solution containing DELFIA Eu-N1 Anti-Phosphotyrosine PT66 antibody (Perkin Elmer, No.: AD0040, diluted 1:9000 in DELFIA test buffer (Perkin Elmer, No.: 1244-111)) is then added and it is incubated for 1 h at RT (shaking at 500 rpm). Then the plate is washed five times with 200 μL/well DELFIA washing buffer (Perkin Elmer, No.: 1244-114), 200 μL/well strengthening solution (Perkin Elmer, No.: 1244-105) is added and the whole is incubated for 10 min at RT (shaking at 300 rpm).
The time-delayed europium fluorescence is then measured in a microtitre plate reader (VICTOR^3, Perkin Elmer). The positive control consists of wells that contain solvent (0.5% DMSO in test buffer) and display uninhibited kinase activity. Wells that contain test buffer instead of enzyme act as a control for the background kinase activity.
The IC50 values are determined from concentration-activity analyses by iterative calculation using a sigmoid curve analysis algorithm (FIFTY, based on GraphPAD Prism Version 3.03) with a variable Hill coefficient.

T1 sequence (Q05397 whole entry): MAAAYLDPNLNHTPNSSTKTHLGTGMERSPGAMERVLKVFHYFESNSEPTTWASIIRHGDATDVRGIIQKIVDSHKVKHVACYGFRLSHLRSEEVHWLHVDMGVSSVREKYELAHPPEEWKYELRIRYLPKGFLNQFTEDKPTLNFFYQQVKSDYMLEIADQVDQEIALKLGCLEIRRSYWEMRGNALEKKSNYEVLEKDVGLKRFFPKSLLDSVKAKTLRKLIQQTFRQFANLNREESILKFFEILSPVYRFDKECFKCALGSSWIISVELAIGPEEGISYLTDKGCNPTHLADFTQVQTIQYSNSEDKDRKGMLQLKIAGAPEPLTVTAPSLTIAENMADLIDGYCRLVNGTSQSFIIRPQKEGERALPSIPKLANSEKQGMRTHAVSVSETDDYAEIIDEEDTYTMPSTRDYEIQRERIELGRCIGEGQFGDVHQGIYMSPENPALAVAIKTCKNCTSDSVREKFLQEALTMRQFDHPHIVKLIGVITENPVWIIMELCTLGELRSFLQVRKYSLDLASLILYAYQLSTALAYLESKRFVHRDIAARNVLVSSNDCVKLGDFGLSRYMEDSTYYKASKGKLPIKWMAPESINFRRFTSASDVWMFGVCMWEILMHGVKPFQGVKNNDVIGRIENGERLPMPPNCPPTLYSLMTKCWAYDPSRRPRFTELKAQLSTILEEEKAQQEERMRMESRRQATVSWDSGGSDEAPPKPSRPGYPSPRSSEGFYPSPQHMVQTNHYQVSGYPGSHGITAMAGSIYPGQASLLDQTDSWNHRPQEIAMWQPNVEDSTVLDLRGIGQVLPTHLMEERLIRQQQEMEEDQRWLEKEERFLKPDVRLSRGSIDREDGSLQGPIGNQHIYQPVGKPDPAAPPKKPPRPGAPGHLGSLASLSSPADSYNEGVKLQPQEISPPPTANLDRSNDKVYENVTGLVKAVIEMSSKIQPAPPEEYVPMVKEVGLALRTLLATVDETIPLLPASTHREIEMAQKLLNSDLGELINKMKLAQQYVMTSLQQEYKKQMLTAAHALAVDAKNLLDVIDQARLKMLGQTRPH

Compound	IC50
COc1cc(N2CCN(C)CC2)c(C)cc1Nc1ncc(C(F)(F)F)c(N[C@@H]2Cc3ccccc3[C@H]2N(C)S(C)(=O)=O)n1 [Example I-77]	0.56 nM
COc1cc(NC(=O)N(C)C)ccc1Nc1ncc(C(F)(F)F)c(N[C@@H]2Cc3ccccc3[C@H]2N(C)S(C)(=O)=O)n1 [Example I-79]	0.23 nM
COc1cc(C(=O)NN2CCN(C)CC2)ccc1Nc1ncc(C(F)(F)F)c(N[C@@H]2Cc3ccccc3[C@H]2N(C)S(C)(=O)=O)n1 [Example I-83]	0.47 nM
COc1cc(N2CCN(C(C)(C)C)CC2)ccc1Nc1ncc(C(F)(F)F)c(N[C@@H]2Cc3ccccc3[C@H]2NS(C)(=O)=O)n1 [Example I-91]	0.75 nM
COc1ccc(C(=O)N(C)C2CCN(C)CC2)cc1Nc1ncc(C(F)(F)F)c(N[C@@H]2Cc3ccccc3[C@H]2N(C)S(C)(=O)=O)n1 [Example I-81]	0.43 nM
CCc1cc(Nc2ncc(C(F)(F)F)c(N[C@@H]3Cc4ccccc4[C@H]3N(C)S(C)(=O)=O)n2)c(OC)cc1N1CCN(C(C)(C)C)CC1 [Example I-89]	0.68 nM

The next lines start with the values.

IC50	Compound
0.48 nM	COc1cc(NC(=O)C2CCN(C)CC2)ccc1Nc1ncc(C(F)(F)F)c(N[C@@H]2Cc3ccccc3[C@H]2N(C)S(C)(=O)=O)n1 [Example I-73, 1-methyl-piperidine-4-carboxylic acid (4-{4-[(1R,2R)-1-(methanesulphonyl-methyl-amino)-indan-2-ylamino]-5-trifluoromethyl-pyrimidin-2-ylamino}-3-methoxy-phenyl)-amide]
0.48 nM	COc1cc(N2CCNCC2=O)ccc1Nc1ncc(C(F)(F)F)c(N[C@@H]2Cc3ccccc3[C@H]2N(C)S(C)(=O)=O)n1 [Example I-87]
0.3 nM	COc1cc(F)c(C(=O)NC2CCN(C)CC2)cc1Nc1ncc(Cl)c(N[C@@H]2Cc3ccccc3[C@H]2N(C)S(C)(=O)=O)n1 [Example I-75, 5-{5-chloro-4-[(1R,2R)-1-(methanesulphonyl-methyl-amino)-indan-2-ylamino]-pyrimidin-2-ylamino}-2-fluoro-4-methoxy-N-(1-methyl-piperidin-4-yl)-benzamide]
0.31 nM	COc1cc(N2CCN(C)CC2=O)ccc1Nc1ncc(C(F)(F)F)c(N[C@@H]2Cc3ccccc3[C@H]2N(C)S(C)(=O)=O)n1 [Example I-86]
0.43 nM	COc1ccc(NC(=O)C2CCN(C)C2)cc1Nc1ncc(C(F)(F)F)c(N[C@@H]2Cc3ccccc3[C@H]2N(C)S(C)(=O)=O)n1 (stereo partly drawn) [Example I-61, 1-methyl-pyrrolidine-3-carboxylic acid (3-{4-[(1R,2R)-1-(methanesulphonyl-methyl-amino)-indan-2-ylamino]-5-trifluoromethyl-pyrimidin-2-ylamino}-4-methoxy-phenyl)-amide]

Molecular target: T1, PTK2
Test: PTK2 enzyme test Assay 1 (DELFIA, poly-Glu-Tyr substrate, PT60 antibody)
Format: biochemical
Conditions: Assay 1 (values without *); 1 h pre-incubation, 50 μM ATP mix, final DMSO 2%
Description: as §1, with “through” for “by means of”, “PT60” for “PT66”, “AD00400).” for “AD0040).”
In order to determine concentration-activity curves with PTK2-inhibitors the compounds are serially diluted in 10% DMSO/H2O and 10 μL of each dilution are placed in each well of a 96-well microtitre plate (clear plate with a U-shaped base, Greiner No. 650101) (the inhibitors are tested in duplicates) and mixed with 10 μL/well of PTK2 kinase (0.01 μg/well). PTK2 kinase has been correspondingly diluted beforehand with kinase dilution buffer (20 mM TRIS/HCl pH 7.5, 0.1 mM EDTA, 0.1 mM EGTA, 0.286 mM sodium orthovanadate, 10% glycerol with the addition of freshly prepared BSA (fraction V, 1 mg/mL) and DTT (1 mM)). The test compound and the PTK2 kinase are pre-incubated for 1 h at RT and shaken at 500 revolutions per min. The reaction is started by the addition of 10 μL/well poly (Glu,Tyr) substrate (25 μg/well poly (Glu, Tyr), 0.05 μg/well biotinylated poly (Glu,Tyr) dissolved in 250 mM TRIS/HCl pH 7.5, 9 mM DTT)—the final concentration of DMSO is 2%. Then 20 μL of ATP Mix (30 mM TRIS/HCl pH 7.5, 0.02% Brij, 0.2 mM sodium orthovanadate, 10 mM magnesium acetate, 0.1 mM EGTA, 1× phosphatase inhibitor cocktail 1 (Sigma, No.: P2850), 50 μM ATP (Sigma, No.: A3377; 15 mM stock solution)) are added. After 1 h of kinase reaction (the plates are shaken at 500 rpm), the reaction is stopped by the addition of 12 μL/well 100 mM EDTA, pH 8.0 and shaken for a further 5 min at RT (500 rpm). 55 μL of the reaction mixture are transferred into a streptavidin plate (Strepta Well High Bind (transparent, 96-well) made by Roche, No.: 11989685001) and incubated for 1 h at RT (shaking at 500 rpm). Then the microtitre plate is washed three times with 200 μL/well D-PBS (Invitrogen, No. 14190). 100 μL of a solution containing DELFIA Eu-N1 Anti-Phosphotyrosine PT60 antibody (Perkin Elmer, No.: AD0040, diluted 1:2000 in DELFIA test buffer (Perkin Elmer, No.: 1244-111)) is then added and the mixture is incubated for 1 h at RT (shaking at 500 rpm). Then the plate is washed three times with 200 μL/well DELFIA washing buffer (Perkin Elmer, No.: 1244-114), 200 μL/well strengthening solution (Perkin Elmer, No.: 1244-105) are added and the mixture is incubated for 10 min at RT (shaking at 300 rpm).
The time-delayed europium fluorescence is then measured in a microtitre plate reader (VICTOR^3, Perkin Elmer). […] Wells that contain test buffer instead of enzyme are used as a control of the background kinase activity.
The IC50 values are determined from analyses of the concentration activity by iterative calculation with the aid of a sigmoid curve analysis algorithm (FIFTY, based on GraphPAD Prism Version 3.03) with a variable Hill coefficient.

Compound	IC50
COc1cc(C(=O)NCCN(C)C)ccc1Nc1ncc(C(F)(F)F)c(N[C@@H]2Cc3ccccc3[C@H]2NS(C)(=O)=O)n1 [Example I-3, N-(2-dimethylamino-ethyl)-4-[4-((1R,2R)-1-methanesulphonylamino-indan-2-ylamino)-5-trifluoromethyl-pyrimidin-2-ylamino]-3-methoxy-benzamide]	2 nM
COc1cc(C(=O)NC2CCN(C)CC2)ccc1Nc1ncc(C(F)(F)F)c(N[C@@H]2Cc3ccccc3[C@H]2N(C)S(C)(=O)=O)n1 [Example I-5, 4-{4-[(1R,2R)-1-(methanesulphonyl-methyl-amino)-indan-2-ylamino]-5-trifluoromethyl-pyrimidin-2-ylamino}-3-methoxy-N-(1-methyl-piperidin-4-yl)-benzamide]	2 nM
COc1cc(C(=O)NC2CCC(N3CCN(CC4CC4)CC3)CC2)ccc1Nc1ncc(C(F)(F)F)c(N[C@@H]2Cc3ccccc3[C@H]2NC(C)=O)n1 (stereo partly shown) [Example I-12]	4 nM
COc1cc(C(=O)NC2CCOCC2)ccc1Nc1ncc(C(F)(F)F)c(N[C@@H]2Cc3ccccc3[C@H]2NC(C)=O)n1 [Example I-15]	4 nM

Next, values leading:

IC50	Compound
1 nM	COc1cc(C(=O)NC2CCC(N3CCN(CC4CC4)CC3)CC2)ccc1Nc1ncc(C(F)(F)F)c(N[C@@H]2Cc3ccccc3[C@H]2N(C)S(C)(=O)=O)n1 (stereo partly shown) [Example I-7]
4 nM	COc1cc(C(=O)NC2CCC(N3CCN(CC4CC4)CC3)CC2)c(F)cc1Nc1ncc(C(F)(F)F)c(N[C@@H]2Cc3ccccc3[C@H]2N(C)S(C)(=O)=O)n1 (stereo partly shown) [Example I-51]
1 nM	COc1cc(C(=O)NC2CCN(C)CC2)c(C)cc1Nc1ncc(C(F)(F)F)c(N[C@@H]2Cc3ccccc3[C@H]2N(C)S(C)(=O)=O)n1 [Example I-53]
1 nM	CNCc1ccc(Nc2ncc(C(F)(F)F)c(N[C@@H]3Cc4ccccc4[C@H]3N(C)S(C)(=O)=O)n2)c(OC)c1 [Example I-71, N-{(1R,2R)-2-[2-(2-methoxy-4-methylaminomethyl-phenylamino)-5-trifluoromethyl-pyrimidin-4-ylamino]-indan-1-yl}-N-methyl-methanesulphonamide]
1 nM	COc1cc(C(=O)NCCN(C)C)ccc1Nc1ncc(C(F)(F)F)c(N[C@@H]2Cc3ccccc3[C@H]2NC(C)=O)n1 [Example I-20]
0.96 nM	COc1cc(C(=O)NC2CCCN(C)C2)ccc1Nc1ncc(C(F)(F)F)c(N[C@@H]2Cc3ccccc3[C@H]2N(C)S(C)(=O)=O)n1 (stereo partly shown) [Example I-6]
2 nM	CNC(=O)c1ccc(Nc2ncc(C(F)(F)F)c(N[C@@H]3Cc4ccccc4[C@H]3NS(C)(=O)=O)n2)c(OC)c1 [Example I-10]
